Results from PMC9204419, “A Toolbox for the Generation of Chemical Probes for Baculovirus IAP Repeat Containing Proteins” (Frontiers in Cell and Developmental Biology, 2022).
Where two headings read alike, the source gives them in different places.

Assays:
[1] = target: BIRC2 (Homo sapiens, UniProt Q13490); test: NanoBRET cellular target engagement, full-length BIRC2
Procedure: (§1) In brief: Constructs contained the cDNA of full-length or single domains cloned in frame with an N-terminal NanoLuc-fusion as specified in Supplementary Table S2. Plasmids were transfected into HEK293T cells using FuGENE HD (Promega, E2312) and proteins were allowed to express for 20 h. […] The corresponding transfected cells were added and reseeded at a density of 2.5^5 cells/mL after trypsinization and resuspending in Opti-MEM without phenol red (Life Technologies). […] Competitive displacement data were then graphed using GraphPad Prism 9.3 software using a normalized 3-parameter curve fit with the following equation: Y = 100/(1 + 10^(X-LogIC50)).

[2] = target: BIRC3 (Homo sapiens, UniProt Q13489); test: NanoBRET cellular target engagement, full-length BIRC3
Procedure: as §1

[3] = target: T1, BIRC7 (Homo sapiens, UniProt Q96CA5); test: NanoBRET cellular target engagement, full-length BIRC7
T1 sequence (Q96CA5 1-298): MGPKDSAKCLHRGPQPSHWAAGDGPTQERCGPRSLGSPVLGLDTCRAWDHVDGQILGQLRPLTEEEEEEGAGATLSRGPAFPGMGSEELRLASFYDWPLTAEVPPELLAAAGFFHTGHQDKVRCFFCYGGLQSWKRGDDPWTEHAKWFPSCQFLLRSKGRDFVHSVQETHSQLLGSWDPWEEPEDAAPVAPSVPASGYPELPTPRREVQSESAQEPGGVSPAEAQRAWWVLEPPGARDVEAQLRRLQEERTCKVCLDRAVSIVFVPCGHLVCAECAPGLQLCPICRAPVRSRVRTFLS
Procedure: as §1

[4] = target: T2, BIRC8 (Homo sapiens, UniProt Q96P09); test: NanoBRET cellular target engagement, full-length BIRC8
T2 sequence (Q96P09 1-236): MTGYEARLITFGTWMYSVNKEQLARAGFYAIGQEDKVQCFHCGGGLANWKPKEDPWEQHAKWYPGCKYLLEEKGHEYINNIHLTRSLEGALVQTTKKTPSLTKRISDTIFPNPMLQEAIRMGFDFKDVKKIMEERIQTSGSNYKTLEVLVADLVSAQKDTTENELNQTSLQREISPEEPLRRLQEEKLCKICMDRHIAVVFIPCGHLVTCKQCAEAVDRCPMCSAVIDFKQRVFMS
Procedure: as §1

[5] = target: T3, BIRC7 BIR (Homo sapiens, UniProt Q96CA5); test: NanoBRET cellular target engagement, single domain BIRC7 BIR
T3 sequence (Q96CA5 70-176): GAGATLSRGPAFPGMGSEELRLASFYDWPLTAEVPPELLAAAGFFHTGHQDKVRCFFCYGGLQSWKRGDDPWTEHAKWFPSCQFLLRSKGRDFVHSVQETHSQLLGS
Procedure: as §1

[6] = target: T4, BIRC8 BIR (Homo sapiens, UniProt Q96P09); test: NanoBRET cellular target engagement, single domain BIRC8 BIR
T4 sequence (Q96P09 1-90): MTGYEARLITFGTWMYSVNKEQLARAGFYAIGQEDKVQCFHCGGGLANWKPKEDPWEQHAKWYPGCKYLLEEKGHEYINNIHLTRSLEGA
Procedure: as §1

[7] = target: BIRC2 BIR2 (Homo sapiens, UniProt Q13490); test: NanoBRET cellular target engagement, single domain BIRC2 BIR2
BIRC2 BIR2, sequence (Q13490 165-267): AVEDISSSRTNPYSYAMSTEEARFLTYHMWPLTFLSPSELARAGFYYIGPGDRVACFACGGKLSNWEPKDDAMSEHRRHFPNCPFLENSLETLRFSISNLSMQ
Procedure: as §1

[8] = target: BIRC3 BIR2 (Homo sapiens, UniProt Q13489); test: NanoBRET cellular target engagement, single domain BIRC3 BIR2
BIRC3 BIR2, sequence (Q13489 147-253): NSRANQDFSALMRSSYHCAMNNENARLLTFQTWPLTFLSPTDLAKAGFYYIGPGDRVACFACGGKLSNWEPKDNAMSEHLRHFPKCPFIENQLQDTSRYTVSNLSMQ
Procedure: as §1

[9] = target: BIRC2 BIR3 (Homo sapiens, UniProt Q13490); test: NanoBRET cellular target engagement, single domain BIRC2 BIR3
BIRC2 BIR3, sequence (Q13490 251-372): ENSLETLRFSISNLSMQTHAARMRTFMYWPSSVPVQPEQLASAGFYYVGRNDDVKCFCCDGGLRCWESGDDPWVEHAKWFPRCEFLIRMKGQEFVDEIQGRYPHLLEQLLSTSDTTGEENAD

[10] = target: BIRC3 BIR3 (Homo sapiens, UniProt Q13489); test: NanoBRET cellular target engagement, single domain BIRC3 BIR3
BIRC3 BIR3, sequence (Q13489 236-360): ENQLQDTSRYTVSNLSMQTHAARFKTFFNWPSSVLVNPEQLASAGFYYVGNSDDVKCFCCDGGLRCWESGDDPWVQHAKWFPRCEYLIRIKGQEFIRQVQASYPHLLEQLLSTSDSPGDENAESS

[11] = target: T5, BIRC1 BIR[2] (Homo sapiens, UniProt Q13075); test: NanoBRET cellular target engagement, single domain BIRC1 BIR[2]
T5 sequence (Q13075 139-251): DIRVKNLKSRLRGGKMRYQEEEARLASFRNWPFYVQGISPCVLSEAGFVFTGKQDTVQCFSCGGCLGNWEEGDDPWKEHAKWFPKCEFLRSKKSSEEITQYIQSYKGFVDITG
Procedure: as §1

[12] = target: T6, BIRC2-BIR3 domain (Homo sapiens, UniProt Q13490); test: Fluorescence polarization (FP) competition assay with fluorescent SMAC probe; assay type: binding; parameters: BIRC2-BIR3 domain (260–352) was expressed; His6 (N, cleaved yes); GST (N, cleaved yes); made in house; host or cells: E. coli; conditions: for Ki: read-out: FP Assay K I Values
T6 sequence (Q13490 260-352): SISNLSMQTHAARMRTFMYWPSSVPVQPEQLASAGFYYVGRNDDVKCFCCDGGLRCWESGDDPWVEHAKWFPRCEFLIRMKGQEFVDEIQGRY
Procedure: Resulting data was plotted using GraphPad Prism 9.3 software and analyzed using a nonlinear fit to calculate the probe IC50. […] Compounds were titrated from 20 μM to 20 nM using an ECHO 550 acoustic dispenser (Labcyte) incubated for 1 h at room temperature and subsequent read out.
The assay is based on the displacement of a fluorescent SMAC mimetic from the binding site.

[13] = target: T6, BIRC2-BIR3 domain; test: Isothermal titration calorimetry (ITC); assay type: binding; parameters: BIRC2-BIR3 domain (260–352) was expressed; His6 (N, cleaved yes); GST (N, cleaved yes); made in house; host or cells: E. coli
Procedure: For this protocol, the chamber was pre-equilibrated with the test compound, and the BIRC2-BIR3 domain was titrated in while continuously measuring the rate of exothermic heat evolution. The heat of binding was integrated, corrected, and fitted to an independent single-binding site model based on the manufacturer’s instructions, from which thermodynamic parameters (ΔH and TΔS), equilibrium association and dissociation constants (K A and K D, respectively), and stoichiometry (n) were calculated.

[14] = target: T6, BIRC2-BIR3 domain; test: Differential scanning fluorimetry (DSF); conditions: for ΔTm at 40 µM: read-out: DSF Assay ΔTm; for ΔTm [°C] (Supplementary Table S1): technical replicate
Procedure: Purified proteins were buffered in DSF buffer (25 mM HEPES pH 7.5, 500 mM NaCl) and were assayed in a 384-well plate (Thermo, #BC3384) with a final protein concentration of 20 μM in 10 μL final assay volume. Inhibitors were added in excess to a final concentration of 40 μM, using an ECHO 550 acoustic dispenser (Labcyte). As a fluorescent probe, SYPRO-Orange (Molecular Probes) was used at 5x final concentration. […] Data was analyzed using Boltzmann-equation in the Protein Thermal Shift software (Applied Biosystems). Samples were measured in technical triplicates.
The assay was run in the presence of DMSO to exclude DMSO influences towards melting temperature differences when testing small molecules (Figures 2C,D).

[15] = target: BIRC4 (Homo sapiens, UniProt P98170); test: NanoBRET cellular target engagement, full-length BIRC4
BIRC4, sequence (P98170 whole entry): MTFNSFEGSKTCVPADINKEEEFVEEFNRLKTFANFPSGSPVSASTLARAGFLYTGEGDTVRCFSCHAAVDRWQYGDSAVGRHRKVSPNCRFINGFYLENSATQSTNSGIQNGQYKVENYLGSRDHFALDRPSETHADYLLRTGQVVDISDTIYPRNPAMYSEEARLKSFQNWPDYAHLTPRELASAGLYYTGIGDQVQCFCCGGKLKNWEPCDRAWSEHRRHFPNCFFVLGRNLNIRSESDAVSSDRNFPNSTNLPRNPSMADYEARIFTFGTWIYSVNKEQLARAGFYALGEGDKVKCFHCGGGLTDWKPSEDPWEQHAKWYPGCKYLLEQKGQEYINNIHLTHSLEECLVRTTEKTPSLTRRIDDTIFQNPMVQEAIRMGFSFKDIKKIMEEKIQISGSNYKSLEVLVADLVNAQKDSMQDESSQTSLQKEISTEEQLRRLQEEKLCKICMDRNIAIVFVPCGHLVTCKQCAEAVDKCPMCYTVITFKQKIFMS
Procedure: as §1

[16] = 25°C, duplicates, mean ± SD, read-out: K D Measured in ITC

BIRC3, sequence (Q13489 whole entry): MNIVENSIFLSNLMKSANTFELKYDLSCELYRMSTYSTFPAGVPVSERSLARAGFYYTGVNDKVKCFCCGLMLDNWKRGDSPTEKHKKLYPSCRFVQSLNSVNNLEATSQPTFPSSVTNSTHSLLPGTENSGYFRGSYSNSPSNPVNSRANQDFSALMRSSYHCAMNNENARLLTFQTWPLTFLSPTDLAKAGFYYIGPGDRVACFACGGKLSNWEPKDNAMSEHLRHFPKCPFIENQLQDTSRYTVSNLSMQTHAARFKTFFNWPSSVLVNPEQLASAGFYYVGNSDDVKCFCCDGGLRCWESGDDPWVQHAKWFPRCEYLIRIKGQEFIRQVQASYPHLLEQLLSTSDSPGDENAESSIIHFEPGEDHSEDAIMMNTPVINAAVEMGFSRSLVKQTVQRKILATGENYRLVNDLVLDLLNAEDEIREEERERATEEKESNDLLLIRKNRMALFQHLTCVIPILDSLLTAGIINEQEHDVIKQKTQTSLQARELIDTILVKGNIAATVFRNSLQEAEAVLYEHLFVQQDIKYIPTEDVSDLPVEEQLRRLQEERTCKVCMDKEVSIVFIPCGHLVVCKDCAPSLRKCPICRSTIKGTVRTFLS
BIRC2, sequence (Q13490 whole entry): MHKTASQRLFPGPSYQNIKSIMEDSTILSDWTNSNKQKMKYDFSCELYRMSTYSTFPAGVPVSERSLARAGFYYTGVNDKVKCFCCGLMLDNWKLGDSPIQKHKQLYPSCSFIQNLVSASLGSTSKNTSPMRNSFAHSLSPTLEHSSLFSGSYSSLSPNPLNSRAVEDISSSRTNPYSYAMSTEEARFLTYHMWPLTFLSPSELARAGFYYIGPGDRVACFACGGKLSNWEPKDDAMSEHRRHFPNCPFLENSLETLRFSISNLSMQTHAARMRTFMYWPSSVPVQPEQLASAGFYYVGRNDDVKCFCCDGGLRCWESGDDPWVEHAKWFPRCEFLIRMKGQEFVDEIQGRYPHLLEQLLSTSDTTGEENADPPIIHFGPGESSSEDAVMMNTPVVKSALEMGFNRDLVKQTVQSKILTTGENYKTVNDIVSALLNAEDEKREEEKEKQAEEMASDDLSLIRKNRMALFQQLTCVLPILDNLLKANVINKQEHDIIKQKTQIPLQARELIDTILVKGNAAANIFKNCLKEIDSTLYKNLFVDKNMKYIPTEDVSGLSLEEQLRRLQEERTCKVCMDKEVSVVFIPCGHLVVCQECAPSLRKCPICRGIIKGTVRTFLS

| Structure (SMILES) | EC50 [1] [nM] | EC50 [2] [nM] | EC50 [3] [nM] | EC50 [4] [nM] | EC50 [5] [nM] | EC50 [6] [nM] | EC50 [7] [nM] | EC50 [8] [nM] | EC50 [9] [nM] | EC50 [10] [nM] | EC50 [11] [nM] | Ki [12] [nM] | Kd [13, 16] [nM] | ΔTm at 40 µM [14] [°C] | ΔTm [°C] (Supplementary Table S1) ([14]; first column) | ΔTm [°C] (Supplementary Table S1) ([14]; second column) | EC50 [15] [nM] | further results |
| --- | --- | --- | --- | --- | --- | --- | --- | --- | --- | --- | --- | --- | --- | --- | --- | --- | --- | --- |
| CN[C@@H](C)C(=O)N[C@H](C(=O)N1CCC[C@H]1C(=O)N[C@@H]1CCCc2ccccc21)C1CCCCC1 [A 410099.1] | 4.6 ± 0.2 | 9.2 ± 1 | 19.9 ± 2.6 | 93.9 ± 9.3 | 17 ± 2.4 | 108 ± 7.5 | 333 ± 35.4 | 681 ± 68 | 0.4 ± 0.2 | 1.5 ± 0.2 | 1230 ± 325 | 2 ± 1.1 | 37.5 ± 6.1 | – | – | – | – | gain in potency on single BIR3 domain compared to full-length protein ([9]; NanoBRET, single BIR3 domain vs full-length): about 10 fold; IC50 ([12]; BIRC2 BIR3 domain, 5 nM probe, 30 nM protein, approximations, read-out: FP assay IC50 (estimated)): 5.4 nM; ITC ΔG ([13]; 25°C): -10.04 kcal/mol; ITC ΔH ([13]; 25°C): -8.23 kcal/mol; Kd ([13]; 25°C, exemplary titration, read-out: ITC KD (Figure 2E,F)): 43.6 nM; ITC stoichiometry n ([13]; exemplary titration, Figure 2E,F): 1.074 |
| CN[C@@H](C)C(=O)N[C@H]1CN(C(=O)CC(C)C)CC[C@H]2CC[C@@H](C(=O)NC(c3ccccc3)c3ccccc3)N2C1=O [AT406] | – | 62 ± 8.5 | 25.1 ± 5.2 | 69.3 ± 21.1 | 18 ± 4.5 | 69.6 ± 0.3 | – | 8135 ± 52.3 | – | 5.2 ± 1.2 | 467 ± 21 | – | – | 11.6 ± 0.2 | 11.8 | 11.8 | 28.5 ± 5.2 | ΔTm [°C] (Supplementary Table S1) ([14]; third column): 11.4 °C |
| CC[C@H](NC(=O)[C@H](C)NC)C(=O)N1C[C@@H](O)C[C@H]1Cc1c(-c2[nH]c3cc(F)ccc3c2C[C@@H]2C[C@H](O)CN2C(=O)[C@H](CC)NC(=O)[C@H](C)NC)[nH]c2cc(F)ccc12 [Birinapant] | – | 800 ± 400 | – | 2200 ± 1100 | – | 3500 ± 100 | – | 17400 ± 1700 | – | 900 | 18300 ± 1100 | – | – | – | – | – | – | – |
| CN[C@@H](C)C(=O)N[C@H](C(=O)N1CCC[C@H]1C(=O)Nc1sc(-c2ncco2)nc1-c1ccccc1)C1CCCCC1 [CUDC-427] | 622 ± 232 | 739 ± 108 | – | 218 ± 48.3 | – | 272 ± 6.1 | 15400 ± 8970 | 14800 ± 636 | 54.4 ± 1 | 20 ± 3.1 | 10100 ± 1230 | 2.9 ± 0.3 | 44.7 ± 11.8 | 10.8 ± 0.1 | 10.9 | 10.9 | 190 ± 26.9 | Mean, ΔTm [°C] (Supplementary Table S1) ([14]; mean of n=3, difference to DMSO control): 10.9 °C |
